pIC50: −log10 of the molar value. In brackets after ≈: the same amount, converted by molar mass. Where two headings read alike, the source gives them in different places.
What was measured:
[1] = test system: A549 (human lung cancer cells); experiment: MTT assay, A549; assay type: cell-based; conditions: 72 h
Protocol: (§1) 1. Sample preparation: After dissolved with DMSO (Merck), PBS (−) was added to make 1000 μg/ml solution or a uniform suspension, and then diluted with PBS (−) containing the DMSO. Doxorubicin (DOX) was used as the positive control drug.
(§2) 2. Cell Line • 1) A549 (human lung cancer cells); 2) HCT116 (human colon cancer cells); 3) HepG2 (human hepatoma cells); 4) ZR-75-30 (human breast cancer cells); 5) U87MG (human brain star glioblastoma)
(§3) DMEM+5-10% FBS+double resistant
(§4) MTT assay. 100 μl cell suspension was added at a concentration of 4˜5×10^4 cells/ml to each well of a 96-well plate, and was set at 37° C., 5% CO2 in the incubator. After 24 h, the sample solution was added, 10 μl/hole, double wells were set, 37° C., acting for 72 h at 5% CO2. […] of 5 mg/ml was added to each well, the dissolving liquid was added after acted for 4 h, 100 μl/hole, kept in the incubator, and read 570 nm OD with MK-2 automatic microplate reader after dissolution.

[2] = test system: HepG2 (human hepatoma cells); experiment: MTT assay, HepG2; assay type: cell-based; conditions: 72 h
Protocol: as §1, §2, §3, §4

[3] = test system: U87MG (human brain star glioblastoma); experiment: MTT assay, U87MG; assay type: cell-based; conditions: U-87 MG, 72 h
Protocol: as §1, §2, §3, §4

[4] = test system: ZR-75-30 (human breast cancer cells); experiment: MTT assay, ZR-75-30; assay type: cell-based; conditions: 72 h
Protocol: as §1, §2, §3, §4

[5] = molecular target: PI3Kα (Homo sapiens, UniProt P42336); experiment: Kinase-Glo Luminescent Kinase Assay, PI3Kα; assay type: biochemical
[6] = test system: HCT116 (human colon cancer cells); experiment: MTT assay, HCT116; assay type: cell-based; conditions: HCT-116, 72 h
[7] = molecular target: mTOR (Homo sapiens, UniProt P42345); experiment: Lance Ultra Assay, mTOR; assay type: biochemical
[8] = molecular target: PI3Kγ (Homo sapiens, UniProt P48736); experiment: ADP-Glo Luminescent Kinase Assay, PI3Kγ; assay type: biochemical; conditions: read-out: IC50 on PI3K gamma
[9] = test system: PC3; experiment: NCI cytotoxicity test, PC3; assay type: cell-based; conditions: Homo sapiens, PC-3
From the text: (§5) Cytotoxicity Test of Compound 9, 10 and 17 on 60 Kinds of Human Cancer Cell Lines from the US National Cancer Institute

[10] = molecular target: PI3K delta (Homo sapiens, UniProt O00329); experiment: Kinase-Glo Luminescent Kinase Assay, PI3K delta; assay type: biochemical
[11] = test system: 60 kinds of human cancer cell lines; experiment: Cytotoxicity test on 60 kinds of human cancer cell lines from the US National Cancer Institute; assay type: cell-based
From the text: as §5

[12] = molecular target: PI3Kβ (Homo sapiens, UniProt P42338); experiment: ADP-Glo Luminescent Kinase Assay, PI3Kβ; assay type: biochemical; conditions: read-out: IC50 on PI3K beta
[13] = test system: A549; experiment: NCI cytotoxicity test, A549; assay type: cell-based; conditions: Homo sapiens
From the text: as §5

[14] = test system: MCF7; experiment: NCI cytotoxicity test, MCF7; assay type: cell-based; conditions: Homo sapiens
From the text: as §5

[15] = test system: five human tumor cells; experiment: MTT assay, five human tumor cells (summary in words); assay type: cell-based; conditions: A549, HCT116, HepG2, ZR-75-30, U87MG
Protocol: as §1, §2, §3, §4

[16] = test system: COLO205; experiment: NCI cytotoxicity test, COLO205; assay type: cell-based; conditions: Homo sapiens, COLO 205
From the text: as §5

[17] = test system: SF539; experiment: NCI cytotoxicity test, SF539; assay type: cell-based; conditions: Homo sapiens, SF-539
From the text: as §5

[18] = test system: SN12C; experiment: NCI cytotoxicity test, SN12C; assay type: cell-based; conditions: Homo sapiens
From the text: as §5

[19] = test system: OVCAR3; experiment: NCI cytotoxicity test, OVCAR3; assay type: cell-based; conditions: Homo sapiens, OVCAR-3
From the text: as §5

Sequence of PI3Kα (P42336 whole entry, species assumed): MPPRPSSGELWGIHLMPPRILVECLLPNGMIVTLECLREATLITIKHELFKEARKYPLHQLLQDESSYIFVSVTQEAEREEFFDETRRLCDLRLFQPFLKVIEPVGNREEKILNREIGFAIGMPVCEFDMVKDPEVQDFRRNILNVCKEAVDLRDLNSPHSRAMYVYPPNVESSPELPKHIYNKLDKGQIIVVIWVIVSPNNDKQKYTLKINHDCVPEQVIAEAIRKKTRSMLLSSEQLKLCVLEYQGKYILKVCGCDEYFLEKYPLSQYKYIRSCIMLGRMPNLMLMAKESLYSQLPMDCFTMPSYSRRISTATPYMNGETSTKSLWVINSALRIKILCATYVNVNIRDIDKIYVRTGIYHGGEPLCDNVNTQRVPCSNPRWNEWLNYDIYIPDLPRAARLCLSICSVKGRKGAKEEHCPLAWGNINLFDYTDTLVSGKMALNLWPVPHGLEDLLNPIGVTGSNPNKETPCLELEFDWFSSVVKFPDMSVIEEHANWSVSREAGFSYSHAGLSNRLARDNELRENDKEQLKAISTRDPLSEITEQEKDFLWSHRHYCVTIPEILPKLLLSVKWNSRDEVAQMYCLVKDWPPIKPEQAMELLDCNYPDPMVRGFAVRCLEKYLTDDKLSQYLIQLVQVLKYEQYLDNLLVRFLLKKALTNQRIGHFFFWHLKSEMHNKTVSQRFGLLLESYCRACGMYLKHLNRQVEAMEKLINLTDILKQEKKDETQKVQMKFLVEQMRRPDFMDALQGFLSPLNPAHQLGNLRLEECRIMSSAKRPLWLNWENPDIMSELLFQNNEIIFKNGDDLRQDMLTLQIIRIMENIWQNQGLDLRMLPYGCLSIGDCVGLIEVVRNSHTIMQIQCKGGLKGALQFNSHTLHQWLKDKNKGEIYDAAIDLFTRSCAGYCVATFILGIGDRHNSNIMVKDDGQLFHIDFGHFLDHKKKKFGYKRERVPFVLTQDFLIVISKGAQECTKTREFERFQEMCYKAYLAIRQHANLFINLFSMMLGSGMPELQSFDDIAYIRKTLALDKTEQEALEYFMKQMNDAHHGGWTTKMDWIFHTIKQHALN
Sequence of PI3Kα (P27986 whole entry partner, species assumed): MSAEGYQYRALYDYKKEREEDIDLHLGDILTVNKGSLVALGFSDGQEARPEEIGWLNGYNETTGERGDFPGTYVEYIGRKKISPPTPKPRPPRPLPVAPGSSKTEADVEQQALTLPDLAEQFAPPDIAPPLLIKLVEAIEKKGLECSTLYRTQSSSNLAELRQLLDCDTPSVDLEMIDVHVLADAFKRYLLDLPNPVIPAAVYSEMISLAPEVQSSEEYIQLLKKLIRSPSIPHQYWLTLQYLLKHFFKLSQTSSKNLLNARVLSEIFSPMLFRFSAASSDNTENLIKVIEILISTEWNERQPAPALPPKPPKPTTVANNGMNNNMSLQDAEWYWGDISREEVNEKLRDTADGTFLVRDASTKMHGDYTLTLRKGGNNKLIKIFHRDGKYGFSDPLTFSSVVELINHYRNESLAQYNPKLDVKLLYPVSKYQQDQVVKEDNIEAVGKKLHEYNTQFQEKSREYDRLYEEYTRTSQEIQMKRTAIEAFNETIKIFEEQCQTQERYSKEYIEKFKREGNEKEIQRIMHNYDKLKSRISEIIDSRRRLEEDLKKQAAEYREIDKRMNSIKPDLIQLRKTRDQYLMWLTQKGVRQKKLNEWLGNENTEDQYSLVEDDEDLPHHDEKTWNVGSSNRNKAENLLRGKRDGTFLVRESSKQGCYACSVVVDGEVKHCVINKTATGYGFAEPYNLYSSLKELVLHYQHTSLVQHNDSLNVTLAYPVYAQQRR
Sequence of PI3Kβ (P42338 whole entry, species assumed): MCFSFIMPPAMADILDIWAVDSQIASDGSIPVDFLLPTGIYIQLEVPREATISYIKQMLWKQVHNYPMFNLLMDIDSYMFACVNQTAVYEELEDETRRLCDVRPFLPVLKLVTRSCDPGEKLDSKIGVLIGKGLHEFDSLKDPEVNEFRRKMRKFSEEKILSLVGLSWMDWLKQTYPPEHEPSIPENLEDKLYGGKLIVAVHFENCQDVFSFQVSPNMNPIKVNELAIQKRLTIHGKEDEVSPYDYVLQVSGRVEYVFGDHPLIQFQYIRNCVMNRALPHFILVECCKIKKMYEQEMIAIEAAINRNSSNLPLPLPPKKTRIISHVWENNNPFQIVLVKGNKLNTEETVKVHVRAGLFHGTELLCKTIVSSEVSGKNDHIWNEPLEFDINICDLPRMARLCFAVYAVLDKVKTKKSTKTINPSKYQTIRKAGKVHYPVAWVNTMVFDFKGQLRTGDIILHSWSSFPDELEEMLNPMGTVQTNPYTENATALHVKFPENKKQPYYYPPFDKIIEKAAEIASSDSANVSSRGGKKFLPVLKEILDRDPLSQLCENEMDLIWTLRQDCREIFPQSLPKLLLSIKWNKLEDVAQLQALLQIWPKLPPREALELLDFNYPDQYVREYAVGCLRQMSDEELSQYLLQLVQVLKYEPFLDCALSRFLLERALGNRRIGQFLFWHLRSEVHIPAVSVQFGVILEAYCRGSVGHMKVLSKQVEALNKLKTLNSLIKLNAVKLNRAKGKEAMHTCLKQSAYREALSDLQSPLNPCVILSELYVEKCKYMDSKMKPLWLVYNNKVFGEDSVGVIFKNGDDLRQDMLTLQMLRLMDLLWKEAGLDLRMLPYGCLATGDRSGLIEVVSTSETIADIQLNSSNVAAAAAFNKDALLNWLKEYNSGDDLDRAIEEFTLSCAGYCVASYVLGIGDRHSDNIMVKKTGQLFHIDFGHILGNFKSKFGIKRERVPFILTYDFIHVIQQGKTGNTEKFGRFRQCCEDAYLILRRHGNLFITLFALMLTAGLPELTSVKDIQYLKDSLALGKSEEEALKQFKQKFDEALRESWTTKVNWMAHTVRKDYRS
Sequence of PI3Kβ (P27986 whole entry partner, species assumed): as the sequence (P27986 whole entry partner, species assumed) above
Sequence of PI3K delta (O00329 whole entry): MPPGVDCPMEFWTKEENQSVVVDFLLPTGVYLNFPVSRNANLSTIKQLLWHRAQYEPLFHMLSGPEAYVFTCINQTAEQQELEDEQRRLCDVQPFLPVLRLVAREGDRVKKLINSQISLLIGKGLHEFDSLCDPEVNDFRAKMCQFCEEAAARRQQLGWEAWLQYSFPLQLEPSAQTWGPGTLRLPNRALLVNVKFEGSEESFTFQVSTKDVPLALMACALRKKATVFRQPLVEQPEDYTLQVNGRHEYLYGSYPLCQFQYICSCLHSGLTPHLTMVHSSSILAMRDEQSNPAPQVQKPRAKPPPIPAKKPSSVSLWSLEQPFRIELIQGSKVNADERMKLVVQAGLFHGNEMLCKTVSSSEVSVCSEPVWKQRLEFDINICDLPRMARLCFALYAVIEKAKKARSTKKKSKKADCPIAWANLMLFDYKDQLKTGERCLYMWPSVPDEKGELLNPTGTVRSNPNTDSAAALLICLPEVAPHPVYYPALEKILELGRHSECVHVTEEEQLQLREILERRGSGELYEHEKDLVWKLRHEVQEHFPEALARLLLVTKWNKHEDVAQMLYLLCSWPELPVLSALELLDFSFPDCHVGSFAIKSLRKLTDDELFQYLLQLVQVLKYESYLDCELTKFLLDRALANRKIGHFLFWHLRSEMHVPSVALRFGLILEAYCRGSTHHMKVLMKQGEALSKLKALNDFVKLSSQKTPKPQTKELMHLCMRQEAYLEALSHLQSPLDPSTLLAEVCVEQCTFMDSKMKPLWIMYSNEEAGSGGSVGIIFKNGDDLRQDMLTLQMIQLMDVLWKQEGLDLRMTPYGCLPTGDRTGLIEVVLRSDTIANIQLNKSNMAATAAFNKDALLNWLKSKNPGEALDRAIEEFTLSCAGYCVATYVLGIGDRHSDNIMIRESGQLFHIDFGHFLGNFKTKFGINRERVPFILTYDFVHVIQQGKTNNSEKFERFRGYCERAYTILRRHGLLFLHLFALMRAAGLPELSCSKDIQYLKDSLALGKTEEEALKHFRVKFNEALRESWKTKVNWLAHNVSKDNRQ
Sequence of PI3K delta (P27986 whole entry partner): as the sequence (P27986 whole entry partner, species assumed) above
Sequence of PI3Kγ (P48736 whole entry, species assumed): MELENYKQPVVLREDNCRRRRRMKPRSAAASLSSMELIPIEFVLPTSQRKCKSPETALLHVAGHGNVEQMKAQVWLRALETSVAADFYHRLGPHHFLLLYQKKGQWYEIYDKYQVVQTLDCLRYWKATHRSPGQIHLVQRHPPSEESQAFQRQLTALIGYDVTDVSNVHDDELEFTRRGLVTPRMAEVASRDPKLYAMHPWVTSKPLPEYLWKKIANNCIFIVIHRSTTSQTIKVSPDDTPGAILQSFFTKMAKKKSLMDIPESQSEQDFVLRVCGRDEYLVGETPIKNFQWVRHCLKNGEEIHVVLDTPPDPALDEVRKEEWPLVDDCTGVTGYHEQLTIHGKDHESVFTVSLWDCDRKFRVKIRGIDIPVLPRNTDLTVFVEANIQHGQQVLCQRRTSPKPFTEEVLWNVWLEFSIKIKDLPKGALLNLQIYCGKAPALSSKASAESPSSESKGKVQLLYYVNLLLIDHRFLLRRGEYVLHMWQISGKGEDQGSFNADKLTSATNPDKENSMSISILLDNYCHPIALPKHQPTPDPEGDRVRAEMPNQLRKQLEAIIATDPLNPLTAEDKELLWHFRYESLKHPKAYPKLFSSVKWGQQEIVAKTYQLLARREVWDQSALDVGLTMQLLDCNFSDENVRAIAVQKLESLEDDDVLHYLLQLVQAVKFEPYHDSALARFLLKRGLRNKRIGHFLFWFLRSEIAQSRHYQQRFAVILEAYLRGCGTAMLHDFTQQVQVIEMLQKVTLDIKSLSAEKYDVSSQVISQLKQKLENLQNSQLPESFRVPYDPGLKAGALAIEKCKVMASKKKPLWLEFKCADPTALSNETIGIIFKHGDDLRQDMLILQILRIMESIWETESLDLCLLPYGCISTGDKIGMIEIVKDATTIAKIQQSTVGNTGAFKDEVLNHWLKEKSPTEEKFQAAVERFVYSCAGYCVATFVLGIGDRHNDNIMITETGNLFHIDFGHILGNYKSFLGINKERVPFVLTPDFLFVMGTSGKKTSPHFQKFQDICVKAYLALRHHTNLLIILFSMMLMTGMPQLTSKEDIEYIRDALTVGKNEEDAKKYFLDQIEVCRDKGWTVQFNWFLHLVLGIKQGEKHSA

Structure (SMILES)	IC50 [1] [µg/mL]	IC50 [2] [µg/mL]	IC50 [3] [µg/mL]	IC50 [4] [µg/mL]	pIC50 [5]	IC50 [6] [µg/mL]	melting point [°C]	other results
COC(=O)c1ccc(-c2ccnc3ccc(-c4cnc(OC)c(NS(=O)(=O)c5ccc(F)cc5F)c4)cc23)cc1 [Compound 7, 4-(6-(5-(2,4-difluorobenzenesulfonamideyl)-6-methoxypyridine-3-yl)quinolin-4-yl)methyl benzoate]	0.014 (≈ 0.0249 µM)	1.16 (≈ 2.07 µM)	3.9 (≈ 6.95 µM)	1.74 (≈ 3.1 µM)	8.82	0.277 (≈ 0.493 µM)	69 to 72	–
COc1ncc(-c2ccc3nccc(-c4ccc(CN(C)CCO)cc4)c3c2)cc1NS(=O)(=O)c1ccc(F)cc1F [Compound 17, N-(5-(4-(4-(((2-hydroxyethyl)(methyl)amino)methyl)phenyl)quinolin-6-yl)-2-methoxypyridine-3-yl)-2,4-difluorobenzenesulfonamide]	0.012 (≈ 0.0203 µM)	–	0.092 (≈ 0.156 µM)	–	9.23	0.0028 (≈ 0.00474 µM)	84 to 85	pIC50 [7]: 8.66; pIC50 [8]: 8.96; GI50 [9]: < 10 nM; pIC50 [10]: 8.47; GI50 ([11]; on the 38 tumor cell lines, read-out: average half growth inhibitory concentration (GI50)): < 10 nM; GI50 ([11]; on the 60 kinds of tumor cells, read-out: Average GI50): 15.8 nM; pIC50 [12]: 8.96; GI50 [13]: < 10 nM; GI50 [14]: < 10 nM; in vitro proliferation inhibition (in words) [15]: high in vitro proliferation inhibition; GI50 [16]: < 10 nM; GI50 [17]: < 10 nM; GI50 [18]: < 10 nM; GI50 [19]: < 10 nM
O=S(=O)(Nc1cc(-c2ccc3nccc(-c4ccc(Cn5cncn5)cc4)c3c2)cnc1Cl)c1ccc(F)cc1 [Compound 33, N-(5-(4-(4-((1H-1,2,4-triazole-1-yl)methyl)phenyl)quinolin-6-yl)-2-chlorinepyridin-3-yl)-4-fluorobenzenesulfonamide]	1.52 (≈ 2.66 µM)	5.47 (≈ 9.58 µM)	–	–	9.14	1.43 (≈ 2.5 µM)	235 to 236	–
COc1ncc(-c2ccc3nccc(Cl)c3c2)cc1NS(=O)(=O)c1ccc(F)cc1F [Compound 4, N-(5-(4-chlorinequinolin-6-yl)-2-methoxypyridine-3-yl)-2,4-difluorobenzenesulfonamide]	1.36 (≈ 2.94 µM)	2.26 (≈ 4.89 µM)	> 100	2.59 (≈ 5.61 µM)	8.64	3.04 (≈ 6.59 µM)	171 to 173	–
CCN(CC)Cc1ccc(-c2ccnc3ccc(-c4cnc(OC)c(NS(=O)(=O)c5ccc(F)cc5F)c4)cc23)cc1 [Compound 5, N-(5-(4-(4-((diethylamine)methyl)phenyl)quinolin-6-yl)-2-methoxypyridine-3-yl)-2,4-difluorobenzenesulfonamide]	0.013 (≈ 0.0221 µM)	0.613 (≈ 1.04 µM)	2.88 (≈ 4.89 µM)	0.783 (≈ 1.33 µM)	8.96	0.00293 (≈ 0.00498 µM)	106 to 108	–
COc1ncc(-c2ccc3nccc(N4CCOCC4)c3c2)cc1NS(=O)(=O)c1ccc(F)cc1F [Compound 3, N-(2-methoxy-5-(4-morpholinequinolin-6-yl)pyridin-3-yl)-2,4-difluorobenzenesulfonamide]	1.23 (≈ 2.4 µM)	11.5 (≈ 22.4 µM)	64.7 (≈ 126 µM)	2.16 (≈ 4.21 µM)	8.85	2.27 (≈ 4.43 µM)	219 to 221	–
CN(CCO)Cc1ccc(-c2ccnc3ccc(-c4cnc(Cl)c(NS(=O)(=O)c5ccc(F)cc5F)c4)cc23)cc1 [Compound 37, N-(5-(4-(4-(((2-hydroxyethyl)(methyl)amino)methyl)phenyl)quinolin-6-yl)-2-chlorinepyridin-3-yl)-2,4-difluorobenzenesulfonamide]	1.08 (≈ 1.81 µM)	1.71 (≈ 2.87 µM)	–	–	9.12	1.89 (≈ 3.18 µM)	132 to 135	–
CCOC(=O)c1ccc(-c2ccnc3ccc(-c4cnc(OC)c(NS(=O)(=O)c5ccc(F)cc5F)c4)cc23)cc1 [Compound 8, 4-(6-(5-(2,4-difluorobenzenesulfonamideyl)-6-methoxypyridine-3-yl)quinolin-4-yl) ethyl benzoate]	0.043 (≈ 0.0747 µM)	2.65 (≈ 4.6 µM)	11.7 (≈ 20.3 µM)	2.45 (≈ 4.26 µM)	8.59	0.235 (≈ 0.408 µM)	90 to 92	–
O=S(=O)(Nc1cc(-c2ccc3nccc(-n4cncn4)c3c2)cnc1Cl)c1ccc(F)cc1 [Compound 27, N-(5-(4-(1H-1,2,4-triazole-1-yl)quinolin-6-yl)-2-chlorinepyridin-3-yl)-4-fluorobenzenesulfonamide]	1.16 (≈ 2.41 µM)	9.43 (≈ 19.6 µM)	–	–	9.09	1.22 (≈ 2.54 µM)	258 to 261	–
COc1ncc(-c2ccc3nccc(-c4ccc(C)cc4)c3c2)cc1NS(=O)(=O)c1ccc(F)cc1F [Compound 6, N-(2-methoxy-5-(4-(p-methylphenyl)quinolin-6-yl)pyridin-3-yl)-2,4-difluorobenzenesulfonamide]	0.642 (≈ 1.24 µM)	5.63 (≈ 10.9 µM)	34.7 (≈ 67 µM)	6.69 (≈ 12.9 µM)	8.35	1.31 (≈ 2.54 µM)	175 to 176	–
COc1ncc(-c2ccc3nccc(N4CCCC4)c3c2)cc1NS(=O)(=O)c1ccc(F)cc1F [Compound 2]	1.69 (≈ 3.41 µM)	9.83 (≈ 19.8 µM)	3.32 (≈ 6.69 µM)	6.73 (≈ 13.6 µM)	< 7.00	1.65 (≈ 3.32 µM)	223 to 225	–
O=S(=O)(Nc1cc(-c2ccc3nccc(-c4ccc(Cn5cncn5)cc4)c3c2)cnc1Cl)c1ccc(F)cc1F [Compound 35, N-(5-(4-(4-((1H-1,2,4-triazole-1-yl)methyl)phenyl)quinolin-6-yl)-2-chlorinepyridin-3-yl)-2,4-difluorobenzenesulfonamide]	5.66 (≈ 9.61 µM)	1.2 (≈ 2.04 µM)	–	–	9.09	1.64 (≈ 2.78 µM)	145 to 148	–
COc1ncc(-c2ccc3nccc(-n4cncn4)c3c2)cc1NS(=O)(=O)c1ccc(F)cc1 [Compound 25, N-(5-(4-(1H-1,2,4-triazole-1-yl)quinolin-6-yl)-2-methoxypyridine-3-yl)-4-fluorobenzenesulfonamide]	1.02 (≈ 2.14 µM)	9.49 (≈ 19.9 µM)	–	–	8.92	1.04 (≈ 2.18 µM)	122 to 124	–
COc1ncc(-c2ccc3nccc(-c4ccc(Cn5cncn5)cc4)c3c2)cc1NS(=O)(=O)c1ccc(F)cc1 [Compound 34, N-(5-(4-(4-((1H-1,2,4-triazole-1-yl)methyl)phenyl)quinolin-6-yl)-2-methoxypyridine-3-yl)-4-fluorobenzenesulfonamide]	0.28 (≈ 0.494 µM)	7.18 (≈ 12.7 µM)	–	–	9.04	1.15 (≈ 2.03 µM)	150 to 152	–
COc1ncc(-c2ccc3nccc(-n4cncn4)c3c2)cc1NS(=O)(=O)c1ccc(F)cc1F [Compound 1, N-(5-(4-(1H-1,2,4-triazole-1-yl)quinolin-6-yl)-2-methoxypyridine-3-yl)-2,4-difluorobenzenesulfonamide]	0.00819 (≈ 0.0166 µM)	1.37 (≈ 2.77 µM)	0.475 (≈ 0.961 µM)	0.454 (≈ 0.918 µM)	9.26	0.011 (≈ 0.0222 µM)	123 to 124	pIC50 [7]: 8.96; pIC50 [8]: 9.33; pIC50 [10]: 8.59; pIC50 [12]: 8.44

Reference: US20160168118A1, “N-(5-QUINOLIN-6-YL)PYRIDIN-3-YL) BENZSULFAMIDE DERIVATIVES, PREPARATION METHOD AND THERAPEUTIC USE THEREOF” (SECOND MILITARY MEDICAL UNIVERSITY, PLA, priority 2012, published 2016)
